According to PMC6331789, “Phytochemicals from Ruta graveolens Activate TAS2R Bitter Taste Receptors and TRP Channels Involved in Gustation and Nociception” (Molecules, 2015):
Where two headings read alike, the source gives them in different places.

Assays:
[1] = target: T1, TRPV1 (Homo sapiens, UniProt Q8NER1); assay: In vitro Fluo8-NW calcium assay (FLIPR) on HEK293T cells stably overexpressing TRPV1; assay type: cell-based; details: for TRPV1 screening result: single dose, qualitative
T1 construct: expressed in transfected cells
Description: (§1) Pure phytochemicals were submitted to in vitro assays with a platform of twenty cloned receptors of the bitter taste TAS2R family and four receptors of the TRP family related to the perception of taste and somatosensory sensations. All experiments have been repeated three times, each time with four replicates. […] For simplicity, only those bitter taste receptors having reproducible positive assay, namely TASR10, 14 and 49, are reported (Table 1).
(§2) For the biological tests, several compounds were purchased as references from different suppliers (Sigma Aldrich, ChromaDex, Irvine, CA, USA, and Tocris Bioscience, Bristol, UK) and dissolved in assay buffer (130 mM NaCl, 5 mM KCl, 1 mM MgCl2, 2 mM CaCl2, 5 mM NaHCO3 and 20 mM HEPES, pH 7.4) or in a mixture of assay buffer and DMSO, never exceeding a final DMSO concentration of 0.5% (v/v) to avoid toxic effects and possible artefacts on transfected cells.
(§3) All human TAS2R and G15Gi1 cDNAs were produced as reported in Bassoli et al. cDNAs for human TRPA1-M5-M8-V1-V4 were cloned into a pcDNA6 expression vector (Invitrogen-Thermo Fisher, Waltham, MA, USA).
(§4) All experiments were performed using HEK293T cells (ATCC).
(§5) For TRP platform experiments, cells were cultured in MEM/EBSS medium (ECB2071L EuroClone, Milan, Italy) plus 10% (v/v) fetal bovine serum (FBS) (26400-044 Gibco, Karlsruhe, Germany) and 1% (v/v) Pen/Strep 10K/10K stock (17-602E Lonza, Basel, Switzerland). Stable cell lines were generated overexpressing each TRP channel, and clones were selected with 500 µg/mL of G418 (ant-gn-5 Invivogen, Karlsruhe, Germany). To analyze TRP receptor responses, cells were plated at a concentration of 20,000 cells/well in 384-well plates (GR-4330 Twin Helix srl, Milan, Italy). Cellular responses were measured 24 h after seeding.
(§6) For TRPA1-M8-V1-V4 experiments, a solution of Fluo8-NW calcium-sensitive dye (36316 AAT BioQuest, Sunnyvale, CA, USA) was prepared using the assaybuffer and diluting the kit components 1:2 according to the manufacturer’s instructions. Twenty-four hours after seeding, cells were incubated one hour at RT, loaded with 40 µL of Fluo8-NW solution for each well and incubated again for one hour at RT before data acquisition.
(§7) For TRPM5 experiments, cells were loaded 24 h after seeding with a Membrane Potential Dye (R8034 MDC) solution in assay buffer according to the manufacturer’s instructions and incubated at 37 °C for 1 h before acquisition. All experiments were performed using a fluorometric imaging plate reader (FLIPR^TETRA, Molecular Devices equipped with ICCD Camera from Stanford Photonics, INC, (Palo Alto, CA, USA) and kinetics were visualized with Molecular Devices’ Screenworks 3.0 (Sunnyvale, CA, USA).
(§8) For the calculation of concentration-response curves, responses were calculated as the difference between maximal and minimal relative fluorescence unit (RFU) values in a selected time window (11–60 s) and were normalized to the basal well fluorescence (Time Point 1, before compound injection) in order to compensate for differences in cell density (∆F/F0). All of the experiments have been repeated three times, each time with four replicates. All of the results are averages of at least four replicates. Raw data are available in Supplementary Material, Figures S3–S6.

[2] = target: T2, TAS2R10 (Homo sapiens, UniProt Q9NYW0); assay: In vitro calcium imaging assay on cloned TAS2R10 in transfected HEK293T cells; assay type: cell-based; details: for TAS2R10 screening result: single dose, qualitative
T2 construct: expressed in transfected cells; host or cells: HEK293T
T2 sequence (Q9NYW0 1-307): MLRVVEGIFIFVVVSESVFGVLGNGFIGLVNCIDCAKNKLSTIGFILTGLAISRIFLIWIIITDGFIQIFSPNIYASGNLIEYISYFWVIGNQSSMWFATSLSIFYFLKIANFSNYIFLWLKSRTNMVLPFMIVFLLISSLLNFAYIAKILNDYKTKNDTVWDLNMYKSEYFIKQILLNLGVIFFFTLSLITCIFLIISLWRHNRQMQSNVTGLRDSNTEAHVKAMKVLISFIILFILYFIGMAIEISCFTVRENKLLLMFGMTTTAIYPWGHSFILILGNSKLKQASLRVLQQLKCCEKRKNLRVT
Description: as §1
(§9) For those compounds showing activity on one or more receptor(s), the concentration/response curves were plotted and the EC50 calculated.
as §2, §3, §4
(§10) For the bitter platform experiments, cells were cultured, transfected and analyzed as previously described.
(§11) For the bitter platform experiments, data analyses were performed as previously described.
as §8

[3] = target: T3, TRPM8 (Homo sapiens, UniProt Q7Z2W7); assay: In vitro Fluo8-NW calcium assay (FLIPR) on HEK293T cells stably overexpressing TRPM8; assay type: cell-based; details: for TRPM8 screening result: single dose, qualitative
T3 construct: expressed in transfected cells
Description: as §1, §9, §2, §3, §4, §5, §6, §7, §8

[4] = target: T4, TAS2R14 (Homo sapiens, UniProt Q9NYV8); assay: In vitro calcium imaging assay on cloned TAS2R14 in transfected HEK293T cells; assay type: cell-based; details: for TAS2R14 screening result: single dose, qualitative
T4 construct: expressed in transfected cells; host or cells: HEK293T
T4 sequence (Q9NYV8 1-317): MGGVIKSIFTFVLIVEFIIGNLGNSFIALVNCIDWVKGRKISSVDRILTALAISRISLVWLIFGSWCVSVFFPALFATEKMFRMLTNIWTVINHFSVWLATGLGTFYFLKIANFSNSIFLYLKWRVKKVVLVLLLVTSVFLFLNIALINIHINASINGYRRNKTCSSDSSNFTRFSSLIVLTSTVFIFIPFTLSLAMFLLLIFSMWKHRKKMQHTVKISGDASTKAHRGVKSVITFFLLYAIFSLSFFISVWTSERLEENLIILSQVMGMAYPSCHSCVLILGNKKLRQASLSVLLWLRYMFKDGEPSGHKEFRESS
Description: as §1, §9, §2, §3, §4, §10, §11, §8

[5] = target: T5, TRPA1 (Homo sapiens, UniProt O75762); assay: In vitro Fluo8-NW calcium assay (FLIPR) on HEK293T cells stably overexpressing TRPA1; assay type: cell-based; details: for TRPA1 screening result: single dose, qualitative
T5 construct: expressed in transfected cells
Description: Pure phytochemicals were submitted to in vitro assays with a platform of twenty cloned receptors of the bitter taste TAS2R family and four receptors of the TRP family related to the perception of taste and somatosensory sensations. All experiments have been repeated three times, each time with four replicates.
as §9, §2, §3, §4, §5, §6, §7, §8

[6] = system: twenty TAS2R bitter taste receptors; assay: In vitro screening on the platform of twenty cloned TAS2R bitter taste receptors; assay type: cell-based, human; details: at the tested concentration
Description: as §1, §2, §3, §4, §10, §11, §8

[7] = concentration/response curve, values with ≥ estimated, curve did not saturate, read-out: EC50 TAS2R10
[8] = concentration/response curve, values with ≥ estimated, curve did not saturate, read-out: EC50 TAS2R14

T1 sequence (Q8NER1 whole entry): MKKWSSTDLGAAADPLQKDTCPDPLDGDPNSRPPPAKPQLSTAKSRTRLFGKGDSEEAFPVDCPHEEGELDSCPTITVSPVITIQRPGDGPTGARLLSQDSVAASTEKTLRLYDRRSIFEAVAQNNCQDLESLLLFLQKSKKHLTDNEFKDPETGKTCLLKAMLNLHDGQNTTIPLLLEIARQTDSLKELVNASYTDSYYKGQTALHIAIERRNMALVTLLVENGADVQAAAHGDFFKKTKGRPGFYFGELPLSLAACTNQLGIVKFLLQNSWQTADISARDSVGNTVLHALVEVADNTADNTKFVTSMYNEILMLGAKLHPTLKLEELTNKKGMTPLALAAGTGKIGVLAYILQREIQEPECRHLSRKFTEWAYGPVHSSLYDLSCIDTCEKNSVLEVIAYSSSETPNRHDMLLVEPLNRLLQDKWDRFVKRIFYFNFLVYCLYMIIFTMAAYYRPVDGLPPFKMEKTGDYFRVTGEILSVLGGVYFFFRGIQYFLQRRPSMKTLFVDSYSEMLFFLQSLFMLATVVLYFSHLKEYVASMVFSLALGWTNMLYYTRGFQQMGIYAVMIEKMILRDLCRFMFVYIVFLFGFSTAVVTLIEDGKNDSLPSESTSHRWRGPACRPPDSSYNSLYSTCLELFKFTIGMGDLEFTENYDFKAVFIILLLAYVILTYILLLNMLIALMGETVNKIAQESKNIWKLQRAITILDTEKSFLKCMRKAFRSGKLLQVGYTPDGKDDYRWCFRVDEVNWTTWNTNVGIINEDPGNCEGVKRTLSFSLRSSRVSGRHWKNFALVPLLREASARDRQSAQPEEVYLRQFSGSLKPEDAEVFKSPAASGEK
T5 sequence (O75762 whole entry): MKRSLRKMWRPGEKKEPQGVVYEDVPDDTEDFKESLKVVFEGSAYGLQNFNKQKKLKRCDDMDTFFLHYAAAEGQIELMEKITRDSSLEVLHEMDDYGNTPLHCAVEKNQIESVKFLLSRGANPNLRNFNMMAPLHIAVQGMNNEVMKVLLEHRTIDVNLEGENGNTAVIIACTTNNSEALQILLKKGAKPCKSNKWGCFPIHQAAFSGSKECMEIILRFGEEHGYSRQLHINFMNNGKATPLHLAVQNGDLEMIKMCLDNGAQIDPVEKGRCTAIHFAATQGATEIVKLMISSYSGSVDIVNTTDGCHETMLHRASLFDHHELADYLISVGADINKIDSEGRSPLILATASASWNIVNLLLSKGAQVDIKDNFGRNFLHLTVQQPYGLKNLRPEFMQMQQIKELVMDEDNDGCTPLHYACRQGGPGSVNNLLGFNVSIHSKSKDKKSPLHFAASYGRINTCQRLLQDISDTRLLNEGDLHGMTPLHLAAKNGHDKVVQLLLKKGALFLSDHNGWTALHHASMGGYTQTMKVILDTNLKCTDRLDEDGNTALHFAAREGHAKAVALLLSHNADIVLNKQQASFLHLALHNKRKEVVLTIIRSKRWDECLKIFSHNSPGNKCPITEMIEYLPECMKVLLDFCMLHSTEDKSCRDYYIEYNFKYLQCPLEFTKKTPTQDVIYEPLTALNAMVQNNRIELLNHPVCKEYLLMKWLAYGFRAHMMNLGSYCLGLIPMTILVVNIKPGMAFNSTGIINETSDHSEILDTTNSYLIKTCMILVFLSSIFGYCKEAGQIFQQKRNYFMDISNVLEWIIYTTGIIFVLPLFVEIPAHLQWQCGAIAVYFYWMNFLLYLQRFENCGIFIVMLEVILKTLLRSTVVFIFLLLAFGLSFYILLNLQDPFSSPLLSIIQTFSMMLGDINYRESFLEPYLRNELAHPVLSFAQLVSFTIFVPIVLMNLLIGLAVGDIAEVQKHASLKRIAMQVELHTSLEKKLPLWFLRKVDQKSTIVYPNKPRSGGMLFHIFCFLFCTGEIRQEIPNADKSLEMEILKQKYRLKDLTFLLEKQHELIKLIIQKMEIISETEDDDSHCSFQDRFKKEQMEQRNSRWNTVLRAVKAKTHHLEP
T3 sequence (Q7Z2W7 whole entry): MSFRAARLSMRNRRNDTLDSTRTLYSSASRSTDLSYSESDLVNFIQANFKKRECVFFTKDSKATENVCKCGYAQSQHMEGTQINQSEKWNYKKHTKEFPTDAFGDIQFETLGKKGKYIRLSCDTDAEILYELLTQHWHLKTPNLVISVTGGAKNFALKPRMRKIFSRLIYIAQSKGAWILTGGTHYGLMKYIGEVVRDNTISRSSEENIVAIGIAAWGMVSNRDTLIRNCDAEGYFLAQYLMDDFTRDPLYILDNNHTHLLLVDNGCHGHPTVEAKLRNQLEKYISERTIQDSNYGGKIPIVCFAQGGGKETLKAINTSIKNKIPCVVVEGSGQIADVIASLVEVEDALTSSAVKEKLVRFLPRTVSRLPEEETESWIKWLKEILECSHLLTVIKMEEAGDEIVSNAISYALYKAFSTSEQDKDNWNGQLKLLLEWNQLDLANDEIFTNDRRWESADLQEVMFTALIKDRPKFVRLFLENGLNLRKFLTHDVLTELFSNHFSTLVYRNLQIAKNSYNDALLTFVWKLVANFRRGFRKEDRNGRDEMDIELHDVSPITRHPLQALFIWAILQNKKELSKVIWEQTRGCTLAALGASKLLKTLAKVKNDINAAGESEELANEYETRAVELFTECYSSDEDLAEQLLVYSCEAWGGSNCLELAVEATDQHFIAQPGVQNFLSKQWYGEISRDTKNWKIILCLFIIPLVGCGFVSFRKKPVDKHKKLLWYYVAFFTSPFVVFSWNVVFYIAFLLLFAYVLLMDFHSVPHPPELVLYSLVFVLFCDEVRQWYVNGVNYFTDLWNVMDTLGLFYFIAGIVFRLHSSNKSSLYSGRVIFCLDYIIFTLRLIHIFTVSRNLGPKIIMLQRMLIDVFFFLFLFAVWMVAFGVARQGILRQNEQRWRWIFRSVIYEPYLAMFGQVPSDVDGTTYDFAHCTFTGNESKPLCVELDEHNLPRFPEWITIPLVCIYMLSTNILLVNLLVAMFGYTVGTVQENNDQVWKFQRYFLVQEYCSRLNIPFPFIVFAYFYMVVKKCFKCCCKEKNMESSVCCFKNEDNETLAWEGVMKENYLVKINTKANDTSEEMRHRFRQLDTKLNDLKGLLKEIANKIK

Compound	TRPV1 screening result [1]	TAS2R10 screening result [2]	TRPM8 screening result [3]	TAS2R14 screening result [4]	TRPA1 screening result [5]	Response on the twenty TAS2R receptors (in words) [6]	Activity on TRPV1 (in words) [1]	Activity on TRPM8 (in words) [3]	Activity on TRPA1 (in words) [5]	Activity on TAS2R10 (in words) [2]	EC50 [2, 7]	Activity on TAS2R14 (in words) [4]	EC50 [2]	EC50 [4]	EC50 ([5]; concentration/response curve, values with ≥ estimated, n.d. = non detectable, read-out: EC50 TRPA1)	EC50 [4, 8]	EC50 [5]
C[C@@H]1O[C@@H](OC[C@H]2O[C@@H](Oc3c(-c4ccc(O)c(O)c4)oc4cc(O)cc(O)c4c3=O)[C@H](O)[C@@H](O)[C@@H]2O)[C@H](O)[C@H](O)[C@H]1O [Compound 1, rutin]	−	−	−	−	−	inactive											
C=CC(C)(C)c1cc2cc3c(cc2oc1=O)OC(C(C)(C)OC(C)=O)C3 (stereo not drawn) [Compound 2, rutamarin]	+	−		−	−		agonist	strong antagonist	did not activate								
COc1c2ccoc2cc2oc(=O)ccc12 [Compound 3, bergapten]	−	+++	−	−	−					selective and strong agonist	2.8 µM	inactive					
COc1c2occc2cc2ccc(=O)oc12 [Compound 4, xanthotoxin]	−	+	−	+	+				agonists	responded			≥ 20.6 µM	≥ 10.8 µM	≥ 19.7 µM		
COc1c2ccoc2c(OC)c2oc(=O)ccc12 [Compound 5, isopimpinellin]	−	++	−	+	+				agonists		12 µM	responded				11.1 µM	≥ 22.8 µM
COc1cc2nc3occc3c(OC)c2cc1OC [Compound 7, kokusaginin]	−	−	−	−	−	did not respond											
COc1ccc2c(OC)c3ccoc3nc2c1OC [Compound 8, skimmianine]	−	−	−	+	−							selectively activate				≥ 15.8 µM	
CCCCCCCCCC(C)=O [Compound 9, 2-undecanone]	−	−	−	−	−	inactive											
CCCCCCCC(C)=O [Compound 10, 2-nonanone]	−	−	−	−	−	inactive											
